Reference: patent US11129782B2, “Derivatives of PPD useful for coloring hair and skin” (National University of Singapore, priority 2017, dated 2021)

How the values were obtained:
[1] = system: HaCaT cells; test: In vitro cell cytotoxicity (MTT) assay on HaCaT cells; format: cell-based, human
Source text: HaCaT (human, adult, low calcium, high temperature, human adult skin keratinocytes) cells were obtained from the IMB (Institute of Medical Biology) Skin Cell Bank. Fetal bovine serum (FBS), Dulbecco's minimum essential medium (DMEM) and trypsin EDTA solution were purchased from GE healthcare life sciences, Utah. Penicillin/streptomycin, dimethyl sulfoxide (DMSO), and phosphate buffered saline (PBS) were from Fisher Scientific (Singapore). Para-phenylenediamine (PPD) was purchased from Sigma Aldrich (Singapore). PPD analogues such as Dimer, trimer, ethyl hexyl para-phenylenediamine (EHPPD), hexyl para-phenylenediamine (HPPD), Bandrowski base (BB) were synthesized in house.
Cell viability was essentially determined using the MTT assay as described in the literature. The HaCaT cells were grown in DMEM with 10% FBS and 1% penicillin/streptomycin. The cells in T-75 cm^2 culture flasks were incubated with 5% CO2 at 37° C. in a humidified incubator. The HaCaT cells were grown to expected confluency and then they were harvested by trypsinizing the cell with 0.25% trypsin/EDTA and incubated at 37° C. for 5 min to obtain the complete cell detachment. After the incubation, cell pellets were resuspended, and washed twice with 1×PBS. The cell suspension in 1×PBS was counted and adjusted to 1×10^5/mL. A HaCaT keratinocyte suspension (100 μL in 1×PBS) with a cell concentration of 1×10^5 cells/mL) and a test solution (100 μL in milli-Q water) were combined in each well of two 96-well plates. Test solutions with a desired concentration were prepared by serial dilutions of the stock solutions with 1×PBS.
For the cytotoxicity experiment, cells were seeded at a density of 5×10^3 in 200 ul of medium into each well of 96-well plates. Cells were seeded as three sets of four replicates for each concentration. After 24 h of incubation, the cells were washed with PBS and cultured for 72 h with 200 ul of 10% FBS containing DMEM medium, together with the different concentrations of the test compounds ranging from 500 μM to 1.9 μM for PPD and analogues 1-5 and standard in a serial dilution. Then the medium was removed and 100 μl of MTT [3-(4,5-dimethylthiazol-2yl)-2,5-diphenyl-2H-tetrazolium bromide](1 mg/ml) (Alfa Aesar, Singapore) in PBS was added. At the end of 4 h incubation, the plates were removed from the incubator and plates were shaken for 5 min. The absorbance at 570 nm was determined using Bio-Tek plate reader. The cell viability rates were calculated from absorbance readings and represented as percentages of control value (untreated cells).

[2] = system: cysteine peptide (Ac-RFAACAA-COOH); test: Direct Peptide Reactivity Assay, cysteine peptide; conditions: for % of Cysteine depletion, Avg / % of Cysteine depletion, Rep 2 / % of Cysteine depletion, Rep 3 / Reactivity Class: 1:10; for % of Cysteine depletion, Rep 1: peptide 0.02 mM : test chemical 0.2 mM (1:10); for Reactivity Class: cysteine
Protocol: For cysteine DPRA, an additional step was performed.
(§1) The mass spectrometric analysis was performed by use of a AB SCIEX QTRAP 5500 tandem mass spectrometry (MS/MS) system (AB SCIEX, Framingham, Mass., USA) operating in triple quadrupole positive mode (ESI+) equipped with an AB Sciex Turbo Ion Spray interface. Acquisition and analysis of data were performed with Analyst software ver. 1.6.2 (Applied Biosystems).

[3] = system: lysine peptide (Ac-RFAAKAA-COOH); test: Direct Peptide Reactivity Assay, lysine peptide; conditions: for % of Lysine depletion, Avg / % of Lysine depletion, Rep 2 / % of Lysine depletion, Rep 3 / Reactivity Class: 1:50; for % of Lysine depletion, Rep 1: peptide 0.02 mM : test chemical 1 mM (1:50); for Reactivity Class: lysine
Protocol: as §1

[4] = Skin permeation in vertical Franz diffusion cells; format: in vitro ADME, porcine; conditions: 8 h; for Skin permeation (in words): porcine skin
Protocol: Porcine ears were generously provided by the NUS Department of Surgery. The ears were frozen at −80° C. until use (up to 3 months) and thawed at room temperature on the day preceding the experiment. Prior to the experiment, the skin was separated from the cartilage and dermatomed to a thickness of ˜1.0 mm using an Acculan™ 3Ti dermatome (Aesculap, Inc., B. Braun, USA).
The PPD and derivatives were dissolved in deionized water at 1% w/v. The PPD and PPD derivatives 1-5 solutions were purged with argon gas to minimize oxidation of the donor solution.
Skin penetration studies were carried out using vertical Franz diffusion cells (PermeGear, USA) immersed in a 37° C. water bath. The donor and receptor volumes were 900 µL and 5 mL, respectively; the mean surface area of penetration was 0.64 cm^2. Upon insertion of the skin pieces into the Franz cells, the skin was equilibrated for 45 min with PBS in the receptor compartment. After equilibration, the skin's trans-epidermal water loss (TEWL) was measured using an Aquaflux AF300 (Biox, UK) to assess the integrity of the skin's stratum corneum barrier. The donor solution, consisting of PPD or derivative 1-5 (n=3 Franz cells each), was then added to the donor compartment and the penetration experiments were conducted for 8 h. The receptor solutions were continuously stirred with magnetic stirrers. At fixed time points, aliquots of 200 μL were taken from the receptor solution of each cell and the receptor solution topped up with 200 μL of fresh PBS. At the end of the experiment, the donor and receptor solutions were removed and the cells dismantled. For the purpose of mass balance on the PPD, PPD derivatives 1-5 the skin pieces and swabs of their outer surfaces were collected and stored in acetonitrile for PPD or derivative 1-5 extraction. The donor solution as well as PBS used to thoroughly wash each part of the Franz cells were also collected.
PPD, PPD derivatives 1-5 and metabolite concentrations in all permeation and mass balance samples were measured by LCMS. PPD steady state fluxes and permeability coefficients were calculated by fitting the solution to Fick's second law of diffusion at the steady state to the linear part of each experimental cumulative amount curve.
The validated method LCMS was applied to quantify PPD, PPD derivative 1-5 and metabolites from skin permeation study samples. FIGS. 3 and 4 show LCMS spectra for the identification of PPD and PPD derivatives 1 and 2 and metabolites from skin permeation study experiment.

[5] = system: cysteine and lysine peptides; test: Direct Peptide Reactivity Assay, mean of cysteine and lysine depletion (FIG. 12)
[6] = Homo sapiens, HaCaT, 72 h, 72 h incubation, MTT

## CCOC(=O)/C=C\C(=O)OCC [Diethylmaleate, reference compound]
[1]; [6]
  IC50: > 100 µM

## COc1cccc2c1C(=O)c1c(O)c3c(c(O)c1C2=O)C[C@@](O)(C(=O)CO)C[C@@H]3O[C@H]1C[C@H](N)[C@H](O)[C@H](C)O1 [Doxorubicin, reference compound]
[1]; [6]
  IC50: < 0.39 µM

## OC[C@H]1O[C@@H](O[C@H]2[C@H](O)[C@@H](O)C(O)O[C@@H]2CO)[C@H](O)[C@@H](O)[C@H]1O (some centres unmarked) [Lactose, reference compound]
[2]; 20 min
  % of Cysteine depletion, Avg: 0%
  % of Cysteine depletion, Rep 2: 0%
  % of Cysteine depletion, Rep 3: 0%
  % of Cysteine depletion, Rep 1: 0%
  Reactivity Class: No or Minimal
[2]; 24 h
  % of Cysteine depletion, Avg: 0.6%
  % of Cysteine depletion, Rep 2: 1%
  % of Cysteine depletion, Rep 3: 1%
  % of Cysteine depletion, Rep 1: 0%
  Reactivity Class: No or Minimal
[3]; 20 min
  % of Lysine depletion, Avg: 0%
  % of Lysine depletion, Rep 2: 0%
  % of Lysine depletion, Rep 3: 0%
  % of Lysine depletion, Rep 1: 0%
  Reactivity Class: No or Minimal
[3]; 24 h
  % of Lysine depletion, Avg: 0%
  % of Lysine depletion, Rep 2: 0%
  % of Lysine depletion, Rep 3: 0%
  % of Lysine depletion, Rep 1: 0%
  Reactivity Class: No or Minimal

## CC1=CC(=O)c2ccccc2C1=O [Menadione, reference compound]
[1]; [6]
  IC50: 3.56 µM

## CCCCCCOc1cc(Nc2ccc(N)cc2)ccc1N [PPD derivative 5, 4-Amino-(3-hexyloxy)-4′-aminodiphenylamine]
[4]; 1% W/V applied
  % Parent compound Penetrated (mean): 0%
  % Parent compound Recovery (mean): 98%
  % converted to metabolite (mean): 0.0118%
[4]
  Skin permeation (in words): did not permeate the skin at all
[4]; listed as PPD 5
  Skin permeation (in words): impermeable
[1]; 72 h incubation, MTT
  IC50: 14.3 µM
[2]; 20 min
  % of Cysteine depletion, Avg: 51.2%
  % of Cysteine depletion, Rep 2: 52.9%
  % of Cysteine depletion, Rep 3: 49.9%
  % of Cysteine depletion, Rep 1: 50.9%
[2]; 24 h
  % of Cysteine depletion, Avg: 53.8%
  % of Cysteine depletion, Rep 2: 53.8%
  % of Cysteine depletion, Rep 3: 54.1%
  % of Cysteine depletion, Rep 1: 53.5%
[3]; 20 min
  % of Lysine depletion, Avg: 6.3%
  % of Lysine depletion, Rep 2: 5.92%
  % of Lysine depletion, Rep 3: 6.2%
  % of Lysine depletion, Rep 1: 6.76%
  Reactivity Class: No or Minimal
[3]; 24 h
  % of Lysine depletion, Avg: 14.3%
  % of Lysine depletion, Rep 2: 15.2%
  % of Lysine depletion, Rep 3: 13.8%
  % of Lysine depletion, Rep 1: 13.8%
  Reactivity Class: Low

## Cc1ccc(NCc2ccc(Nc3ccc(Nc4ccc(N)cc4)cc3)cc2)cc1 [PPD derivative 10, N^1-[4-(4-tolylaminomethyl)phenyl]-N^4-(4-aminophenyl)-1,4-benzenediamine]
[1]; [6]
  IC50: 1.8 µM
[5]; cysteine 1:10 / lysine 1:50 model
  Sensitizing potential predicted from mean peptide depletion: weak sensitizer
[5]; mean of cysteine (1:10) and lysine (1:50), FIG. 12
  Mean peptide depletion: 23.0%

## O=[N+]([O-])c1ccc(CNc2ccc(Nc3ccc(NCc4ccc([N+](=O)[O-])cc4)cc3)cc2)cc1 [PPD derivative 11, N^4-[(4-nitrophenyl)methyl]-N^1-[4-[(4-nitrophenyl)methylamino]phenyl]-benzene-1,4-diamine]
[1]; [6]
  IC50: 6.4 µM

## COc1ccc(CNc2ccc(Nc3ccc(NCc4ccc(OC)cc4)cc3)cc2)cc1 [PPD derivative 12]
[1]; [6]
  IC50: 4.3 µM

## Cc1ccc(CNc2ccc(Nc3ccc(NCc4ccc(C)cc4)cc3)cc2)cc1 [PPD derivative 13, N^4-(p-tolylmethyl)-N^1-[4-(p-tolylmethylamino)phenyl]benzene-1,4-diamine]
[1]; [6]
  IC50: 5.2 µM

## Oc1ccc(CNc2ccc(Nc3ccc(NCc4ccc(O)cc4)cc3)cc2)cc1 [PPD derivative 14, 4-[[4-[4-[(4-hydroxyphenyl)methylamino]anilino]anilino]methyl]phenol]
[1]; [6]
  IC50: 5.4 µM

## CCC(C)(C)C(=O)O[C@H]1C[C@@H](C)C=C2C=C[C@H](C)[C@H](CC[C@@H]3C[C@@H](O)CC(=O)O3)[C@H]21 [Simvastatin, reference compound]
[1]; Homo sapiens, HaCaT
  IC50: 9.15 µM
[1]; [6]
  IC50: 28.6 µM

## CC(C)(C)c1cc(O)ccc1O [Tertbutylhydroquinone, reference compound]
[1]; [6]
  IC50: 27.9 µM

## O=C1C=CC(=O)C=C1 [p-Benzoquinone, p-benzoquinone, reference compound]
[2]; 20 min
  % of Cysteine depletion, Avg: 72.8%
  % of Cysteine depletion, Rep 2: 73.7%
  % of Cysteine depletion, Rep 3: 72.0%
  % of Cysteine depletion, Rep 1: 72.7%
  Reactivity Class: High
[2]; 24 h
  % of Cysteine depletion, Avg: 89.7%
  % of Cysteine depletion, Rep 2: 89.5%
  % of Cysteine depletion, Rep 3: 90%
  % of Cysteine depletion, Rep 1: 89.6%
  Reactivity Class: High
[3]; 20 min
  % of Lysine depletion, Avg: 21.0%
  % of Lysine depletion, Rep 2: 20.6%
  % of Lysine depletion, Rep 3: 20%
  % of Lysine depletion, Rep 1: 22.5%
  Reactivity Class: Low
[3]; 24 h
  % of Lysine depletion, Avg: 88.7%
  % of Lysine depletion, Rep 2: 87.5%
  % of Lysine depletion, Rep 3: 91.6%
  % of Lysine depletion, Rep 1: 87.0%
  Reactivity Class: High
